According to US20020077355A1, “Use of epoxyeicosatrienoic acids in the treatment of cerebrovascular conditions” (priority 2000, published 2002):
Values joined by “and” are separate entries in the source; they are usually repeats but may differ in a detail not shown here. Equal entries are not always repeated.

What was measured:
[1] = tested on: regional cerebral blood flow (rCBF) in mice; test: Regional cerebral blood flow by laser Doppler flowmetry after MCA occlusion; assay type: in vivo
Description: In a separate set of ventilated, halothane-anesthetized animals, regional cerebral blood flow (rCBF) was determined at the margins (“penumbra”) of ischemic infarcts using laser Doppler flowmetry (Perimed, PF-2B, Stockholm, Sweden) and recorded on a MacLab/8 data acquisition system (AD Instruments, Milford, Mass.). the left femoral artery and vein were cannulated for blood pressure measurement, blood gas determination and drug administration, a fiberoptic probe (Perimed PF-319:2, diameter=0.5 mm) was fixed to the skull, 4 mm lateral and 2 mm posterior to bregma on the ipsilateral hemisphere and away from large pial vessels. This coordinate identifies the site on the convex brain surface within the vascular territory supplied by the distal segment of the MCA (Huang, Z et al., Science, 1994, 265:1883-1885; Yang, G et al., Stroke, 1994, 25:165-70). rCBF was recorded continuously before, during and after MCA occlusion. The mean values after MCA occlusion and before administration were taken as baseline, and the data thereafter were expressed as percentages of the baseline value. The percent change in cerebrovascular resistance was calculated using the following formula: Δ%R=Δ% MABP/Δ% rCBF, where Δ% MABP is percent change in mean arterial blood pressure.
(§1) Data is expressed as means ±SE. Statistical evaluation was performed by Student's t-test to compare infarct volumes between groups. Analysis of variance with repeated measures followed by Dunnett's t-test was used to test the significance of rCBF and resistance changes between groups. p<0.05 was considered statistically significant.
Physiological variables during laser-Doppler flowimetry in anesthetized, ventilated, EET-treated and vehicle-treated mice are shown in FIGS. 2 and 3. Values are reported as mean +/− SEM. CBF denotes cerebral blood flow; MABP indicates mean arterial blood pressure.
FIG. 2 is a graph showing regional CBF changes in EET-treated and vehicle-treated mice for 80 min after EET (300 μg/kg total dose) or vehicle infusion at a constant rate of 100 μl/kg/min over 20 min. Error bars denote standard error of the mean (SEM); CBF change with baseline control was determined by one-way ANOVA followed by Fisher's protected least-squares difference test. The increase in rCBF began at 5-10 minutes and achieved statistical significance at 10-15 minutes after infusion. Maximum values achieved at 40-60 min reached 50% above baseline levels.

[2] = tested on: mice subjected to middle cerebral artery occlusion; test: Focal cerebral ischemia by middle cerebral artery occlusion, infarct volume; assay type: in vivo; conditions: for Infarct Volume, individual animal / Infarct Volume, Mean: mice, MCA occlusion; for Infarct Volume, individual animal: 24 hours
Source text: Young adult male mice (C57B1/J6, Jackson Laboratories) weighing 20-25 g, were given free access to food and water prior to experimentation.
(§2) Ischemia was produced by occluding the left middle cerebral artery (MCA) with a silicon-coated 8-0 nylon monofilament under anesthesia as described (Huang, Z et al., J Cereb Blood Flow Metab, 1996, 16:981-987, Huang, Z et al., Science, 1994, 265:1883-1885, Hara, H et al., J Cereb Blood Flow Metab, 1997, 1:515-526). Arterial blood pressure, heart rate, arterial oxygen pressure, and partial pressure of carbon dioxide were monitored as described (Huang, Z et al., J Cereb Blood Flow Metab, 1996, 16:981-987, Huang, Z et al., Science, 1994, 265:1883-1885, Hara, H et al., J Cereb Blood Flow Metab, 1997, 1:515-526).
11,12 EET (Sigma Chemical Co., St Louis, Mo.) or vehicle was administered by an infusion pump (Harvard Apparatus, South Natick, Mass.) with a tethering device (Instech, Plymouth Meeting, Pa.) into the femoral vein at the rate of 0.2 ml/hour for 2 hours beginning after the onset of ischemia to deliver a dose of 30, 100, and/or 300 μg/kg/hour. Control animals received the equivalent amount of vehicle alone. During infusion, the anesthesia was discontinued. […] After infusion, the animals were re-anesthetized with halothane and the venous catheter was removed. The filaments were withdrawn after 2 hours and after 24 hours, and mice were sacrificed. Brains were divided into five coronal 2-mm sections using a mouse brain matrix (RBM-200C, Activated Systems, Ann Arbor, Mich., USA). Infarction volume was quantitated with an image analysis system (M4, St. Catharines, Ontario, Canada) on 2% 2,3,5-triphenyltetrazolium chloride (Sigma Chemical Co., St Louis, Mo.) stained 2-mm slices.
as §1

[3] = tested on: rat cerebellar granule cell (CGC) cultures; test: H2O2 oxidative stress, apoptosis scored by Hoechst stain for nuclear condensation; assay type: cell-based; conditions: H2O2 225 μM for 10 min, 11,12-EET 1.2 μM present; without 11,12-EET 87.6%; p<0.01
Description: (§3) Cerebellar cortices of postnatal day 7 rat pups were isolated, incubated in 0.25% trypsin for 20 min and triturated with a 10-cc Falcon pipette. Cells were plated on Falcon plastic dishes ˜100,000 cells/cm^2 in BME medium containing 25 mM KCl. Cell cultures were maintained in a humidified 5% CO2 /37° C. incubator. 10 μM AraC was added from day 2-3 in vitro to suppress glial proliferation. Cells were studied at day 7-8 in vitro.
(§4) To test the effects of EET during oxidative stress, rat cerebellar granule cell (CGC) cultures were subjected to H2O2 treatment (225 μM for 10 min.). Less apoptosis was found at 24 hour when 11,12-EET (1.2 μM) was present compared to cell culture without 11,12-EET (51.7% vs. 87.6% respectively, p<0.01, scored by Hoechst stain for nuclear condensation). In addition, superoxide production (as monitored by oxidation of dihydroethidine) was decreased when 11,12-EET was present in CGC cultures during H2O2 treatment.

[4] = tested on: rat cerebellar granule cell (CGC) cultures; test: Dihydroethidine study to monitor intracellular superoxide production; assay type: cell-based; conditions: CGC cultures during H2O2 treatment, 11,12-EET 1.2 μM
Description: as §3
Dihydreothidine study to monitor intracellular superoxide production: 10 μl of dihydroethidine stock solution (1 mg/cc) in dimethylsulfoxide (DMSO) and 4 μl of H2O2 were added to 4cc of Eagle's Basal Medium (medium A). Each 2-cm^2 well of containing neuronal cell culture was preincubated with 11.12-EET (1.2 μM) for an hour and was replaced with 250 μL of medium A in the presence or absence of 11,12-EET (1.2 μM). […]
as §4

[5] = tested on: mean arterial blood pressure (MABP) in mice; test: Mean arterial blood pressure in animals with focal cerebral ischemia; assay type: in vivo; conditions: FIG. 3
Source text: as §2
In a separate set of ventilated, halothane-anesthetized animals, regional cerebral blood flow (rCBF) was determined at the margins (“penumbra”) of ischemic infarcts using laser Doppler flowmetry (Perimed, PF-2B, Stockholm, Sweden) and recorded on a MacLab/8 data acquisition system (AD Instruments, Milford, Mass.). the left femoral artery and vein were cannulated for blood pressure measurement, blood gas determination and drug administration, a fiberoptic probe (Perimed PF-319:2, diameter=0.5 mm) was fixed to the skull, 4 mm lateral and 2 mm posterior to bregma on the ipsilateral hemisphere and away from large pial vessels. […]

Question: `CCCCC/C=C\CC1OC1C/C=C\C/C=C\CCCC(=O)O` (stereo not drawn) [EET, 11,12-epoxyeicosatrienoic acid] was tested. Which “Time at which the increase in rCBF began” value ([1]; 300 μg/kg i.v.) did it give?
Answer: 5 to 10 min

Question: And the “Effect on rCBF in parietal cortex” value ([1]; 300 μg/kg i.v. total dose infused over 20 min, vehicle did not increase rCBF)?
Answer: increased rCBF

Question: What about the “Time at which the rCBF increase achieved statistical significance” value ([1]; 300 μg/kg i.v., after infusion) of the same compound?
Answer: 10 to 15 min

Question: What about the “Maximum rCBF above baseline levels” value ([1]; 300 μg/kg i.v., at 40-60 min) of the same compound?
Answer: 50%

Question: And the “Reduction of infarct volume in comparison to vehicle-treated animals” value ([2]; 300 μg/kg group, n=7, p<0.05)?
Answer: at least 41%

Question: And the “Infarct volume, of hemispheric volume” value ([2]; 300 μg/kg group, n=7, vehicle 34±3, means ±SE)?
Answer: 20±3

Question: And the “Infarct Volume, individual animal” value ([2]; EET 30 μg/kg i.v. infusion)?
Answer: 32.4 mm^3 and 43.0 mm^3 and 41.9 mm^3 and 27.7 mm^3 and 37.4 mm^3 and 23.7 mm^3

Question: And the “Infarct Volume, Mean” value ([2]; EET 30 μg/kg, n=6)?
Answer: 34.3 mm^3

Question: What about the “Infarct Volume, individual animal” value ([2]; EET 100 μg/kg i.v. infusion) of the same compound?
Answer: 34.1 mm^3 and 37.6 mm^3 and 22.4 mm^3 and 16.3 mm^3 and 24.5 mm^3 and 38.6 mm^3 and 11.8 mm^3

Question: What about the “Infarct Volume, Mean” value ([2]; EET 100 μg/kg, n=7) of the same compound?
Answer: 26.5 mm^3

Question: What about the “Infarct Volume, individual animal” value ([2]; EET 300 μg/kg i.v. infusion) of the same compound?
Answer: 32.5 mm^3 and 13.4 mm^3 and 13.1 mm^3 and 28.3 mm^3 and 11.8 mm^3 and 25.6 mm^3 and 13.6 mm^3

Question: And the “Infarct Volume, Mean” value ([2]; EET 300 μg/kg, n=7)?
Answer: 19.7 mm^3

Question: And the “Apoptosis at 24 hour” value [3]?
Answer: 51.7%

Question: And the “Superoxide production (oxidation of dihydroethidine)” value [4]?
Answer: decreased

Question: What about the “Change in MABP, EET-treated vs. vehicle-treated animals” value [5] of the same compound?
Answer: No significant changes
